Laboratory results from patent US8889651B2, “Trehalose derivatives, preparation method and uses thereof” (Joyochem Co., Ltd., priority 2010, dated 2014).
Where two headings read alike, the source gives them in different places.

Columns and labels:
[1] = tested on: colon cancer 26-L5 cell invasion; test: recombinant basement membrane invasion experiment (Transwell/Matrigel); assay type: cell-based; settings: for IC50 / IC50 (μg/mL): inhibition of colon cancer 26-L5 cell invasion
Procedure: Invasion and metastasis are basic characteristics of malignant tumors. During the tumor metastasis process, the tumor cell invasion into a basement membrane is an important link. A conventional recombinant basement membrane invasion experiment is adopted, a natural product Brartemicin is taken as positive control, and the inhibition action of trehalose derivatives against colon cancer 26-L5 cell invasion activity is determined.
Polycarbonate membrane 8 μm (Nucleopore, Pleasanton, Calif., USA); Transwell cell culture chamber (Costar 3422, Cambridge, Mass., USA); fibronectin (FN; Collaborative Research Inc., Bedford, Mass., USA); Matrigel (Collaborative Research Inc., Bedford, Mass., USA); RPMI1640 culture medium containing 1% of fetal calf serum (FCS) (Collaborative Research Inc., Bedford, Mass., USA); and hematoxylin-eosin (HE) staining kit (Collaborative Research Inc., Bedford, Mass, USA).
20 μg of fibronectin is smeared on the lower layer of a Transwell cell culture chamber, and 5 μg of Matrigel is smeared on the upper layer. Colon cancer 26-L5 cells in an exponential growth phase are suspended in an RPMI1640 culture medium containing 1% of fetal calf serum (FCS), which contains different concentrations of the trehalose derivatives or different concentrations of Brartemicin. […] The filter ester membranes contain the colored colon cancer 26-L5 cells after invasion. The ester membranes are placed on glass slides and are subjected to permeabilization by xylene, neutral resin is used for sealing, and the invasion cells are counted under a 400× microscope. The number of the penetrating cells of each membrane is counted from five different visual fields, namely upper, lower, left, right and middle visual fields, the average value is calculated, and three filter membranes are arranged in parallel in each group.
The natural product Brartemicin is taken as the positive control, the inhibition action of the trehalose derivatives against the colon cancer 26-L5 cell invasion activity is determined, and the activity experiment results are as shown in the following Table 1.

[2] = tested on: colon cancer 26-L5 cell invasion; settings: background statement; read-out: anti-colon cancer 26-L5 cell invasion activity IC50; cited from earlier work
normal cells = settings: background statement; cited from earlier work

Structure (SMILES)	anti-colon cancer 26-L5 cell invasion activity (in words) [1]	IC50 (μg/mL) ([1]; incubation 6-8 hours)	other results
Cc1cc(O)cc(O)c1C(=O)OC[C@H]1O[C@H](O[C@H]2O[C@H](COC(=O)c3c(C)cc(O)cc3O)[C@@H](O)[C@H](O)[C@H]2O)[C@H](O)[C@@H](O)[C@@H]1O [Brartemicin]	–	–	IC50 ([1]; incubation 6-8 hours, read-out: IC50): 0.25 µg/mL; IC50 [2]: 390 nM; toxicity against normal cells (normal cells): no toxicity against normal cells
COc1ccccc1C(=O)OCC1OC(OC2OC(COC(=O)c3ccccc3OC)C(O)C(O)C2O)C(O)C(O)C1O [Compound 3a, 6,6′-bis(2-methoxybenzoyl)-α,α-D-trehalose]	strong anti-colon cancer 26-L5 cell invasion activity	–	–
Cc1ccccc1C(=O)OC[C@H]1O[C@H](O[C@H]2O[C@H](COC(=O)c3ccccc3C)[C@@H](O)[C@H](O)[C@H]2O)[C@H](O)[C@@H](O)[C@@H]1O [Compound 3b, 6,6″-bis(2-methylbenzoyl)-α,α-D-trehalose]	–	NA (NA: no activity when IC50 is 10 μg/mL)	–
COc1ccc(C(=O)OC[C@H]2O[C@H](O[C@H]3O[C@H](COC(=O)c4ccc(OC)cc4)[C@@H](O)[C@H](O)[C@H]3O)[C@H](O)[C@@H](O)[C@@H]2O)cc1 [Compound 3c, 6,6′-bis(4-methoxybenzoyl)-α,α-D-trehalose]	–	NA (NA: no activity when IC50 is 10 μg/mL)	–
O=C(OCC1OC(OC2OC(COC(=O)c3ccc(O)cc3)C(O)C(O)C2O)C(O)C(O)C1O)c1ccc(O)cc1 (stereo not drawn) [Compound 3d]	strong anti-colon cancer 26-L5 cell invasion activity	–	–
COc1cccc(C(=O)OC[C@H]2O[C@H](O[C@H]3O[C@H](COC(=O)c4cccc(OC)c4OC)[C@@H](O)[C@H](O)[C@H]3O)[C@H](O)[C@@H](O)[C@@H]2O)c1OC [Compound 3e]	strong anti-colon cancer 26-L5 cell invasion activity	–	activity compared with the natural product Brartemicin [1]: stronger activity than the natural product Brartemicin; IC50 ([1]; incubation 6-8 hours): 0.10 µg/mL; IC50 ([1]; same value given in μM, read-out: IC50): 0.15 µM
O=C(OCC1OC(OC2OC(COC(=O)c3c(F)cccc3F)C(O)C(O)C2O)C(O)C(O)C1O)c1c(F)cccc1F (stereo not drawn) [Compound 3f]	strong anti-colon cancer 26-L5 cell invasion activity	–	–
Cc1cccc(N)c1C(=O)OC[C@H]1O[C@H](O[C@H]2O[C@H](COC(=O)c3c(C)cccc3N)[C@@H](O)[C@H](O)[C@H]2O)[C@H](O)[C@@H](O)[C@@H]1O [Compound 3g]	strong anti-colon cancer 26-L5 cell invasion activity	–	–
COc1cc(C(=O)OCC2OC(OC3OC(COC(=O)c4ccc(F)c(OC)c4)C(O)C(O)C3O)C(O)C(O)C2O)ccc1F (stereo not drawn) [Compound 3h]	–	NA (NA: no activity when IC50 is 10 μg/mL)	–
COc1cc(C(=O)OC[C@H]2O[C@H](O[C@H]3O[C@H](COC(=O)c4cc(OC)c(OC)c(OC)c4)[C@@H](O)[C@H](O)[C@H]3O)[C@H](O)[C@@H](O)[C@@H]2O)cc(OC)c1OC [Compound 3i]	–	NA (NA: no activity when IC50 is 10 μg/mL)	–
